Values quoted from earlier work as cited in patent publication US20100056426A1, “USE OF IRON CHELATOR FOR THE TREATMENT OF MYOCARDIAL INFARCTION” (NOVARTIS AG, priority 2007, published 2010).
Like-named read-outs stand apart in the source and are kept apart here.

What was measured:
[1] = humans; Nisbet Brown et al., Lancet 2003
[2] = model systems; Hershko et al., Blood 2001

O=C(O)c1ccc(-n2nc(-c3ccccc3O)nc2-c2ccccc2O)cc1 [4-[3,5-bis-(2-hydroxyphenyl)-[1,2,4]-triazol-1-yl]benzoic acid]
selective removal of iron [1]: effective in the selective removal of iron
selective removal of iron [2]: effective in the selective removal of iron
